Active and inactive are the calls of the source.
Tests used:
[1] = target: Dual specificity tyrosine-phosphorylation-regulated kinase 1A (Rattus norvegicus, UniProt Q63470); assay type: biochemical, Homo sapiens
[2] = target: T1, Zinc finger protein mex-5 (Caenorhabditis elegans, UniProt Q9XUB2); test: MEX-5/TCR-2 RNA interaction inhibitors, dose response, biochemical, C. elegans, fluorescence polarization (AID 1960)
T1 sequence (Q9XUB2 whole entry): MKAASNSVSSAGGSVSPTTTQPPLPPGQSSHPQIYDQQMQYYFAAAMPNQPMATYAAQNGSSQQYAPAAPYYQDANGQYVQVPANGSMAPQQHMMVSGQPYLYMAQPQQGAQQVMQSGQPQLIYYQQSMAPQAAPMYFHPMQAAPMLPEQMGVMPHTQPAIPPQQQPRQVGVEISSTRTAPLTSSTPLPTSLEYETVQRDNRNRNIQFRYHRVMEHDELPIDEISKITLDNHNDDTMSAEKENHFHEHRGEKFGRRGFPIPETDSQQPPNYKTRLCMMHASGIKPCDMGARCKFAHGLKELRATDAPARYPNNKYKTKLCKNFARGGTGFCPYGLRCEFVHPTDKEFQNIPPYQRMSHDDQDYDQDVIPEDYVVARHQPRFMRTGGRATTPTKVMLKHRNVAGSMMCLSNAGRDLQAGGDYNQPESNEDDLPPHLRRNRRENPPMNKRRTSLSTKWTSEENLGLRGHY

Caspase-6 = target: T2, Caspase-6 (Homo sapiens, UniProt P55212); test: human caspase-6 inhibitors, dose response, biochemical, VEID-R110 fluorescence, cherry-pick (AID 720632)
T2 sequence (P55212 whole entry): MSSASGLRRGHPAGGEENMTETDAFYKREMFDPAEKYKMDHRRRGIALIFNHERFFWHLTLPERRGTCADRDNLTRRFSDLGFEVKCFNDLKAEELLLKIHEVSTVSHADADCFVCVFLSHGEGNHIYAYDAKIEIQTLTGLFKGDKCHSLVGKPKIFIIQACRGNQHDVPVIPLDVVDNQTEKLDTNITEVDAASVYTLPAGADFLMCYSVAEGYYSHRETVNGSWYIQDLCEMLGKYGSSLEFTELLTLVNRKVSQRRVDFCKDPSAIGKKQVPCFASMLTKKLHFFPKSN

Protein RecA = target: T3, Protein RecA (Mycobacterium tuberculosis, UniProt P9WHJ3); test: Fluorescence Cell-Free Homogeneous Dose Retest to Identify Inhibitors of RecA-Intein Splicing Activity. [Related pubchem assays (depositor defined):AID2097, AID2223, AID489010, AID492950]; assay type: functional
T3 sequence (P9WHJ3 whole entry): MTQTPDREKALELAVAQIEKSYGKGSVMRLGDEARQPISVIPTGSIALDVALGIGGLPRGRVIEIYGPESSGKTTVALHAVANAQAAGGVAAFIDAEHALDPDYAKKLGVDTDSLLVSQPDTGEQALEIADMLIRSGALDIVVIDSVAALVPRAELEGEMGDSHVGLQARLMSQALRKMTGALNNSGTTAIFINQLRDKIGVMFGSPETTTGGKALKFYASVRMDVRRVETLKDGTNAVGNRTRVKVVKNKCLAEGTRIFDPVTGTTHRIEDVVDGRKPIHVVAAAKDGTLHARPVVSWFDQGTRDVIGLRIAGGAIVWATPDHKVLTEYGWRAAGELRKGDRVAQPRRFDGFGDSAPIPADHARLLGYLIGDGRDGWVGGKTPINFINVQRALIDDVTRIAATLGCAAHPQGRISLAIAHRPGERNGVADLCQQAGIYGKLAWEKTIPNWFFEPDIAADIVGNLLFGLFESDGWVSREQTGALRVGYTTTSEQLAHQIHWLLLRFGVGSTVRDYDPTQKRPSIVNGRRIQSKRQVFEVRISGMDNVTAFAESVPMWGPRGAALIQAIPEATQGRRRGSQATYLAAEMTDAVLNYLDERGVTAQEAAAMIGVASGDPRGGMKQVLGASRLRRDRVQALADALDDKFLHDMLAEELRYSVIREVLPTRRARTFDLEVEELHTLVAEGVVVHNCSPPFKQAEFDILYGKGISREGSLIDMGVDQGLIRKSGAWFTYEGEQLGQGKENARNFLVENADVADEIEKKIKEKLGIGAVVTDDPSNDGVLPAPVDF

[3] = target: T4, RNA-binding protein pos-1 (Caenorhabditis elegans, UniProt G5EF15); test: inhibitors of POS-1/mex-3 RNA binding, dose response, biochemical, fluorescence polarization (AID 1964);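 note: purified POS-1 fused to maltose binding protein made in E. coli; potency of compounds blocking POS-1 binding to fluorescent RNA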
T4 sequence (G5EF15 whole entry): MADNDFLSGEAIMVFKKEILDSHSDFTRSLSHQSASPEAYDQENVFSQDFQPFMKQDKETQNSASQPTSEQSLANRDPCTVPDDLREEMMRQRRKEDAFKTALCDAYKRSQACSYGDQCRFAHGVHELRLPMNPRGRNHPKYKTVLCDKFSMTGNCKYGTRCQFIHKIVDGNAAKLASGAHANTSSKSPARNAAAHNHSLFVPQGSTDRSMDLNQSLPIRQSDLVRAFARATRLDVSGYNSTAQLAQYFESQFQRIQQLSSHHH

[4] = microbe, parasite or virus in culture; assay type: functional; conditions: Mycobacterium tuberculosis
[5] = C. albicans growth with fluconazole, confirmation, fluorescence, retest (AID 2467); assay type: functional, cell-based
Caspase-9 = Caspase-9 (Homo sapiens, UniProt P55211); test: caspase-9 enzyme inhibition, dose response, selectivity assay for caspase-6 inhibitor project, biochemical, fluorescence, plate reader, cherry-picked samples (AID 743293)
[6] = NIH-3T3 fibroblast cytotoxicity, dose response, cytotoxicity control, cell-based, fluorescence, Alamar Blue, secondary assay (AID 2327); assay type: functional;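 note: NIH-3T3 mouse fibroblasts cultured with fluconazole at 8 µg/mL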
[7] = target: T5, Apoptotic protease-activating factor 1 (Homo sapiens, UniProt O14727); assay type: functional
T5 sequence (O14727 whole entry): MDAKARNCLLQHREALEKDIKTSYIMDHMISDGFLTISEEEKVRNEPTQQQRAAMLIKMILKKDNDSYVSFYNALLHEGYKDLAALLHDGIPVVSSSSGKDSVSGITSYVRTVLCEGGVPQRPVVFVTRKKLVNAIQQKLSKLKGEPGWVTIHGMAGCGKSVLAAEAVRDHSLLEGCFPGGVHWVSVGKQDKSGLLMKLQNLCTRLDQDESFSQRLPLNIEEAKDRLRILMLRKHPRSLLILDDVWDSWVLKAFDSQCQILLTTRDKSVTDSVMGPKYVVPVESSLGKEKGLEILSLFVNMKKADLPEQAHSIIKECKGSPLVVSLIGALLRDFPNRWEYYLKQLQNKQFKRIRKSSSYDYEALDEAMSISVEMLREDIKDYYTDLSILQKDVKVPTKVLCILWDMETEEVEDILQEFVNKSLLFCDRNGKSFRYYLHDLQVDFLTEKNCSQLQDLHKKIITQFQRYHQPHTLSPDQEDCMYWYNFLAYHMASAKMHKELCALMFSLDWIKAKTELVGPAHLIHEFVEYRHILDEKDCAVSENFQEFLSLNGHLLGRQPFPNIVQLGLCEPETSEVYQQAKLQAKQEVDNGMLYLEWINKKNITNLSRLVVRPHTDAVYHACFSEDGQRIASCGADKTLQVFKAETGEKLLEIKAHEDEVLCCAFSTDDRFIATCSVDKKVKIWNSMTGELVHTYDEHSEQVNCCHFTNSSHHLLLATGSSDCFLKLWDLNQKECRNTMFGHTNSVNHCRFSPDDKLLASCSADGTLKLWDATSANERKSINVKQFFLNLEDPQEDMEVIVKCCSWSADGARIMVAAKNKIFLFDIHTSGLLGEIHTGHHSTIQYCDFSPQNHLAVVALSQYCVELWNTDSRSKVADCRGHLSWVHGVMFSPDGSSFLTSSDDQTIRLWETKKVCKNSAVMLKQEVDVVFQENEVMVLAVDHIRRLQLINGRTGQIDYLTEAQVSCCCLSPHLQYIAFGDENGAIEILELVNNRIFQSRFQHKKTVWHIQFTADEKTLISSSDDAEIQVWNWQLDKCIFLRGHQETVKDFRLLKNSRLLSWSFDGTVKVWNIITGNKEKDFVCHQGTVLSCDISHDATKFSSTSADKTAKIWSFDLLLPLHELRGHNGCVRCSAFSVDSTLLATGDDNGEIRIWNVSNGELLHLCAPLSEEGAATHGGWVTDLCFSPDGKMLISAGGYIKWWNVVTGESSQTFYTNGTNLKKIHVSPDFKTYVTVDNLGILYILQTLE

Caspase-7 = Caspase-7 (Homo sapiens, UniProt P55210); test: human caspase-7 inhibitors, dose response, selectivity assay for caspase-6 inhibitor project, biochemical, DEVD-R110 fluorescence, cherry-pick (AID 743295)
[8] = Luminescence Cell-Based Dose Retest to Confirm Inhibitors of Cancer Stem Cells. [Related pubchem assays (depositor defined):AID2717, AID2721]; assay type: functional; conditions: Homo sapiens
[9] = non-specific cell cytotoxicity, dose response, cytotoxicity control for PAX8 inhibitor project, plate reader, dry powder samples (AID 743021); assay type: functional, cell-based
[10] = HepG2 cell cytotoxicity, dose response, cytotoxicity control, dry powder samples (AID 720568); assay type: functional, cell-based
Genome polyprotein = Genome polyprotein (dengue virus type 2, UniProt P29990); test: Dengue-2 NS5 methyltransferase inhibitors, primary screen, biochemical, confirmation dose response (AID 588689); assay type: functional
[11] = target: T6, Corticotropin-releasing factor receptor 2/Corticotropin-releasing factor-binding protein (Homo sapiens, UniProt P24387+Q13324); test: activators of CRF receptor 2 with binding protein – uHTS hits, confirmation (AID 602473); assay type: functional; conditions: read-out: EC50_Mean
T6 sequence (Q13324 whole entry): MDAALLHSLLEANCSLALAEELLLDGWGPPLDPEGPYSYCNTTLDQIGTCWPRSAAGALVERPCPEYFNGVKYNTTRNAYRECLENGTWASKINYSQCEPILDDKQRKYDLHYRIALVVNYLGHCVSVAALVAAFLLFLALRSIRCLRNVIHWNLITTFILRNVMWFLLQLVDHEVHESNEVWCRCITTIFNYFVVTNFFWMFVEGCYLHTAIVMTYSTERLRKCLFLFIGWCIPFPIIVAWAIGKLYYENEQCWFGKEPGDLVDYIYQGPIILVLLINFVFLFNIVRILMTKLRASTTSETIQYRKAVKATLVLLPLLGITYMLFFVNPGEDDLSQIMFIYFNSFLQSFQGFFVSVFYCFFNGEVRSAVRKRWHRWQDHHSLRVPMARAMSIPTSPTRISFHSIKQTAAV
T6 sequence (P24387 whole entry): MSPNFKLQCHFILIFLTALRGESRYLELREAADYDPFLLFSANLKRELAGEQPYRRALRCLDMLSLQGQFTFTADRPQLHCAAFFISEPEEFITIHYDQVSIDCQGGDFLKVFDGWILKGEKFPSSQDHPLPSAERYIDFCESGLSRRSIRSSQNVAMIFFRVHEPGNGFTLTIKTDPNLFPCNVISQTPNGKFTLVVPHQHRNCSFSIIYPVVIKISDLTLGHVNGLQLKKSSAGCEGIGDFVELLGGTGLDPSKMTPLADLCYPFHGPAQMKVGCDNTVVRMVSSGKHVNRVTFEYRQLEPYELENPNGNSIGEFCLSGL

Leucine aminopeptidase = target: T7, Leucine aminopeptidase (Plasmodium falciparum 3D7, UniProt Q8IL11); test: P. falciparum M17LAP inhibitors, primary screen, biochemical, fluorogenic H-Leu-NHMec substrate, 1536-well (AID 1619); assay type: functional
T7 sequence (Q8IL11 whole entry): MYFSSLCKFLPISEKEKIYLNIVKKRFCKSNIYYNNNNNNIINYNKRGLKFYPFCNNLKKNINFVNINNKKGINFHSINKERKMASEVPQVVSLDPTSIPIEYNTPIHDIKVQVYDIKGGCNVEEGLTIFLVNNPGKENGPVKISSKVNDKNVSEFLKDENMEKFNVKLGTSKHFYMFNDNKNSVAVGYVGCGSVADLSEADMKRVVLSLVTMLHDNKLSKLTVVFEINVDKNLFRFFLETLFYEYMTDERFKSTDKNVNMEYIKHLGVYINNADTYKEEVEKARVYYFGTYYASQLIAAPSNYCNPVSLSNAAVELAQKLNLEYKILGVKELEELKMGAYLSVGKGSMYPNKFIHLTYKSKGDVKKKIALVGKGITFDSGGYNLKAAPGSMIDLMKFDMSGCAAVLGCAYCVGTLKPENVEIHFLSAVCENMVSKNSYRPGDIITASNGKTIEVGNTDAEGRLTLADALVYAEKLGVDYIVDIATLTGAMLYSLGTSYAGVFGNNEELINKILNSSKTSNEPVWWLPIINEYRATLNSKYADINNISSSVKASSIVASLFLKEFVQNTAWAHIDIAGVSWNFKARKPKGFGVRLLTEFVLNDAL

fMet-Leu-Phe receptor = fMet-Leu-Phe receptor (Homo sapiens, UniProt P21462); test: FPR ligands, dose response (AID 519); assay type: functional
[12] = TRPM1 promoter luciferase reporter signal decrease, dose response, MITF inhibitor project, cell-based, SK-MEL-5, dry powder, set 8 (AID 624430); assay type: functional
[13] = MITF: Counter assay: A375 proliferation Measured in Cell-Based System Using Plate Reader - 2084-03_Inhibitor_Dose_DryPowder_Activity_Set8.; assay type: functional; conditions: A-375
[14] = MITF Orthogonal Assay: SK-MEL-5 CTG Assay Measured in Cell-Based System Using Plate Reader - 2084-02_Inhibitor_Dose_DryPowder_Activity_Set7.; assay type: functional

Sequence of Genome polyprotein (P29990 2492-3391 limits assumed): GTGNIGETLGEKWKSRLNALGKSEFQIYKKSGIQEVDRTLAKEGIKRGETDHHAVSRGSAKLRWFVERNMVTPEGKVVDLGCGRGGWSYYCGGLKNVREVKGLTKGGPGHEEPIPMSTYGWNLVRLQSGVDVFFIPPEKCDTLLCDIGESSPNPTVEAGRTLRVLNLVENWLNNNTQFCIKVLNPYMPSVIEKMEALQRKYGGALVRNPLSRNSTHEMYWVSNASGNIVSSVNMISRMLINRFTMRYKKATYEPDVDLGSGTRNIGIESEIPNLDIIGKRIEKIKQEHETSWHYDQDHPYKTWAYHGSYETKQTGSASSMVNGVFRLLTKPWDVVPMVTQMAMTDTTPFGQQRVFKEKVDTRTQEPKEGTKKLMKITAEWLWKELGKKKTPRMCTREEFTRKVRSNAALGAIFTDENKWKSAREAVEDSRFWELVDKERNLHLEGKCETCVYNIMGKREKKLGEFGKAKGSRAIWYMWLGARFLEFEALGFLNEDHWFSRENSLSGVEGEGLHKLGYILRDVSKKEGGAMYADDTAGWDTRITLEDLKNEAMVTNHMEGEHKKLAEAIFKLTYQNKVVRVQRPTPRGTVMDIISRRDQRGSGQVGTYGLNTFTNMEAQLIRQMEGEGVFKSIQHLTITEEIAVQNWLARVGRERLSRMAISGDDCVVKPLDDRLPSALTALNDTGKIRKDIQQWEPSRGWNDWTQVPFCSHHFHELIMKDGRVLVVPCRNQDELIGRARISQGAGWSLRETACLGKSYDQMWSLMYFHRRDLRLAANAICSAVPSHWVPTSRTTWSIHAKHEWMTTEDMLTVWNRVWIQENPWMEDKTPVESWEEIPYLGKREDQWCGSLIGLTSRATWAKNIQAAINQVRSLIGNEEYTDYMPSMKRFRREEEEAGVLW
Sequence of Caspase-7 (P55210 24-198 limits assumed): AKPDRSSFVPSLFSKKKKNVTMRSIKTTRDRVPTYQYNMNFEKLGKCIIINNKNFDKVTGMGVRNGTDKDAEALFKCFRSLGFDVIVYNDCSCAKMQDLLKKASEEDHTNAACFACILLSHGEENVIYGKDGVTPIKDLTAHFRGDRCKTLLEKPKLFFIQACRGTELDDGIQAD
Sequence of Caspase-7 (P55210 207-303 limits assumed): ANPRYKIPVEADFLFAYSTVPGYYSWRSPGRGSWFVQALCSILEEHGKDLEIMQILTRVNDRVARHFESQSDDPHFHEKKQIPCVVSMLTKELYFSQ
Sequence of Caspase-9 (P55211 1-315 limits assumed): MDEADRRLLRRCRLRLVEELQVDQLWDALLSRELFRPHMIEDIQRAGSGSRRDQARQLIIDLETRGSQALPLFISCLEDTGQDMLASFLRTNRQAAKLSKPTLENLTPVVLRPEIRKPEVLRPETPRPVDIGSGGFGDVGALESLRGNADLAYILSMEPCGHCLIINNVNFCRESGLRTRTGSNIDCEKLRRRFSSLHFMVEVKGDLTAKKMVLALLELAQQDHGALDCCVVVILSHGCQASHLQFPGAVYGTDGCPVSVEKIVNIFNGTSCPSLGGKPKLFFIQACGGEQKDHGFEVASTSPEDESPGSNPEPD
Sequence of Caspase-9 (P55211 331-416 limits assumed): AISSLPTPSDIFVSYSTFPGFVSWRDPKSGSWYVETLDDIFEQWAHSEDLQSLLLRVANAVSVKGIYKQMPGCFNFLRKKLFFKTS
Sequence of fMet-Leu-Phe receptor (P21462 whole entry): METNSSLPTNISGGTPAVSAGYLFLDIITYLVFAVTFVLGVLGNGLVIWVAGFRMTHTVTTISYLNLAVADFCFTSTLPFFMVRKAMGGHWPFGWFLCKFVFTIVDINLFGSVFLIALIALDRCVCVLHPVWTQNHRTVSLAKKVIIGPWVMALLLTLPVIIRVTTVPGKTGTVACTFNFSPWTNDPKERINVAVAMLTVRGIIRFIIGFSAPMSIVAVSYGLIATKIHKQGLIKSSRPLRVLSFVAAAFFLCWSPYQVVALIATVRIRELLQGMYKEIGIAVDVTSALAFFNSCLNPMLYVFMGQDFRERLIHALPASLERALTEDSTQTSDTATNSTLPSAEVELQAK

## CN1CCc2cc3c(c4c2C1Cc1ccccc1-4)OCO3 (stereo unspecified) [ROEMERINE]
[1]
  AC50: 2.54 µM (active)
[2]
  EC50: 21.5 µM (inconclusive)
Caspase-6
  AC50: 3.68 µM (active)
Protein RecA
  EC50: 0.0797 µM (active)
[3]
  EC50: 16.8 µM (active)
[4]
  CC50: > 40 µM (active)
[5]
  EC50: > 38 µM (not active)
Caspase-9
  AC50: > 70 µM (inactive)
[6]
  EC50: > 150 µM (inactive)
[7]
  IC50: 10.2 µM (active)
Caspase-7
  AC50: 1.51 µM (active)

## Nc1nc(=S)c2ncn([C@@H]3O[C@H](CO)[C@@H](O)[C@H]3O)c2[nH]1 [THIOGUANOSINE]
[8]
  AC50: 0.301 µM (active)
[9]
  AC50: 2.21 µM (active)
[10]
  AC50: 6.38 µM (active)

## Cc1sc(NC(=O)C2CCCCC2C(=O)O)c(C(N)=O)c1-c1ccc(C(C)(C)C)cc1 (stereo unspecified)
Genome polyprotein
  IC50: 60.1 µM (active)
[11]
  EC50: 5.33 µM (active)
Leucine aminopeptidase
  IC50: 11.1 µM (active)
fMet-Leu-Phe receptor
  Ki: 41.2 µM (inactive)

## O=C1C=C(Nc2ccc(Cl)c(C(F)(F)F)c2)C(=O)c2ccccc21
[12]
  AC50: > 70 µM (inactive)
[13]
  AC50: > 70 µM (inactive)
[14]
  AC50: 0.754 µM (active)

Source: ChEMBL document CHEMBL1201862, “PubChem BioAssay data set” (2004)
